Results taken from PubChem BioAssay (NCI).
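Protocol summary: plate cells (96-well), add compound at 5 concentrations, incubate 48 h, interpolate endpoints linearly. TGI: concentration producing complete growth inhibition.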

Experiments:
Experiment in all cases: growth of human tumour cells (NCI), 48 h
[1] = system: OVCAR-4 ovarian
[2] = system: T-47D breast
[3] = system: NCI-H522 lung
[4] = system: SR leukemia
[5] = system: SK-MEL-28 melanoma
[6] = system: A549 NSCLC
[7] = system: SF-268 CNS
[8] = system: HL-60(TB) leukemia
[9] = system: BT-549 breast

Row | SMILES | TGI [1] [µM] | TGI [2] [µM] | TGI [3] [µM] | TGI [4] [µM] | TGI [5] [µM] | TGI [6] [µM] | TGI [7] [µM] | TGI [8] [µM] | TGI [9] [µM]
1 | COc1ccc2nc3c([N+](=O)[O-])ccc4c3c(c2c1)NCCN4CCO | 2.39 | 3.68 | 1.24 | 0.455 | 2.03 | 2.68 | 6.26 | 1.25 | 
2 | COC(=O)C1Cc2c(OC)ccc(OC)c2CC(C(=O)OC)C1=O (stereo not drawn) | > 100 | > 100 | > 100 |  | > 100 | > 100 | > 100 |  | > 100
3 | CC1(C)N=C(C(N)=O)c2ncn(N)c2N1 | > 100 | > 100 | > 100 | > 100 | > 100 | > 100 | > 100 | > 100 | 
4 | Cc1ccsc1/C=N/Nc1nc2ccccc2s1 | 72.9 | > 100 |  |  | > 100 | 50.5 | 66.7 |  | > 100
5 | O=C(c1ccco1)N1CCCN(C(=O)c2ccco2)C1=S |  | 93.3 |  |  | > 100 |  | > 100 | > 100 | > 100
6 | O=C(/C=C/c1ccc(O)c(O)c1)OCCCc1ccccc1 | 20.7 | 45.9 | 5.59 | 22.8 | 31.2 | 31.3 | 24 | 4.84 | 
7 | O=C(O)c1cc2ccccc2c(N=Nc2ccc(S(=O)(=O)Nc3nccs3)cc2)c1O | > 100 | > 100 | > 100 | > 100 | > 100 | > 100 | > 100 | > 100 | 
8 | COC(=O)/C(=C\Nc1cccc(C)n1)S(=O)(=O)c1ccc(C)cc1 | > 100 | > 100 | > 100 | > 100 | > 100 | > 100 | > 100 | 53.3 | 
9 | CCOC(=O)c1cc(-c2cc(OC)c(OC)c([N+](=O)[O-])c2)c([N+](=O)[O-])n1C | > 10 |  | > 10 | > 10 |  | > 10 | > 10 | > 10 | > 10
10 | CCCSc1ccc2[nH]c(N3C(=O)/C(=C/c4ccco4)N=C3c3ccccc3)cc2c1 |  | > 50 | 37.8 | > 50 | > 50 | > 50 | > 50 | > 50 | > 50
11 | COc1cc(C2c3cc4c(cc3[C@@H](Nc3ccccc3)C3COC[C@H]23)OCO4)cc(OC)c1O (stereo partly drawn) | > 100 | > 100 | 25.8 | 16.5 | 39.1 | 14 | > 100 |  | 
12 | CCCCCCCCOC1C(O)C(O)C(O)C(O)C12CO2 (stereo not drawn) |  | > 100 | > 100 | > 100 | > 100 | > 100 | > 100 | > 100 | > 100
13 | COC(=O)[C@@H]1[C@@H](c2cccc(Cl)c2)[C@H](C(=O)OC)C2(C[C@@]1(C)O)NCCS2 (stereo partly drawn) | > 100 | > 100 | > 100 |  | > 100 | > 100 | > 100 |  | > 100
14 | COC(=O)C1C/C(=C/N(C)C)C(=S)N1 (stereo not drawn) | > 100 | > 100 | > 100 | > 100 | > 100 | > 100 | > 100 |  | > 100
15 | Cn1c(=O)c(C(=O)Nc2nc(C34CC5CC(CC(C5)C3)C4)cs2)c(O)c2ccccc21 | > 100 |  | > 100 | > 100 | > 100 | > 100 | > 100 | > 100 | > 100
16 | COC(=O)C1=C(C(=O)OC)C(C(=O)c2ccc(Br)cc2)N2N=C(c3ccc(Cl)cc3)C=CC12 (stereo not drawn) | > 100 |  | > 100 | > 100 | > 100 | > 100 | > 100 | > 100 | > 100
17 | CCOC(=O)C1=CNC(C(=O)OCC)C1c1cccn1-c1ccc(Cl)cc1[N+](=O)[O-] (stereo not drawn) | 98.3 | > 100 | 35.2 | 61.8 | 53.1 | > 100 | 55.5 |  | 61.2
18 | Cc1nc(C)c(C(=O)NNC(N)=S)cc1C(=O)NNC(N)=S | > 100 | > 100 | > 100 |  | > 100 | > 100 | > 100 | > 100 | > 100
19 | COC(=O)/C=C\n1c(C)cc(=O)[nH]c1=O | > 100 | > 100 | > 100 | > 100 | > 100 | > 100 | > 100 |  | > 100
